Results from US20250295790A1, “LECTIN-TARGETING CONJUGATES” (Helmholtz-Zentrum für Infektionsforschung GmbH, priority 2021, published 2025).

Type: in vitro ADME
Experimental: Each compound dissolved in DMSO was added to mouse plasma (pH 7.4, 37° C.) or to human plasma (pH 7.4, 37° C.) to yield a final concentration of 1 μM. In addition, procaine and procainamide (dissolved in DMSO) were added to mouse plasma or to human plasma (pH 7.4, 37° C.) to yield a final concentration of 1 μM. Procaine served as positive control as it is unstable in mouse plasma. Procainamide served as negative control as it is stable in mouse plasma. The samples were incubated for 0 min, 15 min, 30 min, 60 min, 90 min, 120 min and 240 min at 37° C. At each time point, 10 μl of the respective sample was extracted with 90 l acetonitrile and 1 μl of caffeine as internal standard for 5 min at 2000 rpm on a MixMate® vortex mixer (Eppendorf). Acetonitrile and caffeine were dispensed using a Mantis Formulatrix®. The samples were centrifuged for 20 min at 2270 ref at 4° C. and the supernatants were transferred to 96-well Greiner V-bottom plates. Samples were analysed using HPLC-MS/MS analysis as described in the respective section. Peak areas of each compound and of the internal standard were analysed using the MultiQuant 3.0 software (AB Sciex). […]
Cell samples as well as plasma stability, plasma protein binding and metabolic stability samples were analysed using an Agilent 1290 Infinity II coupled to an AB Sciex 6500plus mass spec-trometer. […]

For `CC(C)CC(NC(=O)CNC(=O)C(C)NC(=O)c1ccc(S(=O)(=O)NCC2OC(C)C(O)C(O)C2O)cc1)C(=O)NC(C)C(=O)NC1CCN(c2cc3c(cc2F)c(=O)c(C(=O)O)cn3C2CC2)C1` (centres unmarked) [Compound 37], which “plasma stability, t1/2 human” value is on record?
Its value is 2.25 h.

What about the “plasma stability, t1/2 mouse” value of the same molecule?
The value was 1.23 h.
